As usually defined, the % Inhibition is the relative decrease from the control value, in per cent. The low end stands for a weak effect, the high end for a strong effect.

Strand notation (5' to 3'): a small letter for the sugar, then the base; units joined by * are phosphorothioate-linked, units joined directly phosphodiester-linked; [ ] holds rarer units or linkages, { } end groups; capitals alone tell only the bases. k = constrained ethyl (cEt); [5mC] = 5-methylcytosine; d = 2'-deoxy (DNA)

For the first series, the system named is human SMAD7 mRNA. Put plainly: Antisense inhibition of human SMAD7 mRNA expression in Hep3B cells by 3-10-3 cEt gapmers, 10,000 nM, electroporation (Example 2). As to conditions: Hep3B cells, 10,000 nM antisense oligonucleotide, electroporation, approximately 24 hours, RT-PCR primer probe set RTS5062, relative to untreated control cells. The class given is cell-based. Here is the method:
Antisense oligonucleotides were designed to target human SMAD7 mRNA and were tested for their effects on SMAD7 mRNA expression in vitro. The antisense oligonucleotides were tested in a series of experiments that had similar culture conditions, as described below. ION 771576, described in the studies above and which is a 5-10-5 MOE gapmer, was also included in these assays. Cultured Hep3B cells at a density of 20,000 cells per well were transfected using electroporation with 10,000 nM antisense oligonucleotide. After a treatment period of approximately 24 hours, RNA was isolated from the cells and SMAD7 mRNA levels were measured by quantitative real-time PCR. Primer probe set RTS5062 was used to measure human SMAD7 mRNA levels. SMAD7 mRNA levels were adjusted according to total RNA content, as measured by RIBOGREEN®. Results are presented as percent inhibition of SMAD7 mRNA expression, relative to untreated control cells.
The newly designed chimeric antisense oligonucleotides in the Tables below were designed as 3-10-3 cEt gapmers. The gapmers are 16 nucleosides in length, wherein the central gap segment comprises often 2′-deoxynucleosides and is flanked by wing segments on the 5′ direction and the 3′ direction comprising three nucleosides each. Each nucleoside in the 5′ wing segment and each nucleoside in the 3′ wing segment has a cEt sugar modification. The internucleoside linkages throughout each gapmer are phosphorothioate (P═S) linkages. All cytosine residues throughout each gapmer are 5-methylcytosines.
“Start site” indicates the 5′-most nucleoside to which the gapmer is targeted in the human gene sequence. “Stop site” indicates the 3′-most nucleoside to which the gapmer is targeted human gene sequence. […] Some of the oligonucleotides presented were complementary to SMAD7 mRNA sequences RefSeqNo. NM_001190821.1 (designated herein as SEQ ID NO: 3) or RefSeqNo. NM_001190822.1 (designated herein as SEQ ID NO: 4), and are presented in a separate table shown below.
For the substance “790847 (kT*k[5mC]*kT*dT*dA*d[5mC]*dA*dA*dA*dG*dA*dG*dT*kT*kA*kT; antisense) [compound 790847]”, the “% Inhibition” value was 24%.

The same series, now with this note: Hep3B cells, electroporation with 10,000 nM antisense oligonucleotide, approximately 24 hours, RTS5062, percent inhibition of SMAD7 mRNA relative to untreated control cells.
With “790714 (kA*kG*k[5mC]*d[5mC]*dA*dG*dT*dT*dA*dA*dT*d[5mC]*dA*kT*kT*kA; antisense) [compound 790714]”, the “% Inhibition” value is reported as 11%.

As for “790715 (kT*kG*kT*d[5mC]*dA*d[5mC]*d[5mC]*d[5mC]*dG*dT*d[5mC]*dT*dG*kG*kG*k[5mC]; antisense) [compound 790715]”, the “% Inhibition” value worked out at 16%.

The same series, now with this note: Hep3B cells, electroporation with 10,000 nM antisense oligonucleotide, approximately 24 hours, SMAD7 mRNA by RT-PCR (RTS5062), relative to untreated control cells.
Take “790680 (kG*kG*kT*dG*dA*dG*dT*dA*dA*d[5mC]*d[5mC]*dA*dG*k[5mC]*kT*kG; antisense) [compound 790680]”: the “% Inhibition” value amounted to 56%.

The same series, now with this note: Hep3B cells, electroporation with 10,000 nM antisense oligonucleotide, approximately 24 hours, primer probe set RTS5062, relative to untreated control cells.
Regarding “790631 (kG*kT*kT*dT*dA*dA*dT*dG*dG*dA*dA*d[5mC]*dA*kT*kA*kA; antisense) [compound 790631]”, the “% Inhibition” value was 0%.

In the case of “790655 (k[5mC]*kG*kT*dG*dT*dT*dA*dA*dA*dG*d[5mC]*dT*dG*kA*kG*k[5mC]; antisense) [compound 790655]”, the “% inhibition of SMAD7 mRNA expression” value is 42%.

For the substance “790695 (kT*kG*kA*dA*dA*dT*dG*dG*dT*dG*d[5mC]*dT*d[5mC]*kT*kG*k[5mC]; antisense) [compound 790695]”, the “% inhibition of SMAD7 mRNA expression” value is listed as 62%.

“798654 (k[5mC]*k[5mC]*k[5mC]*dT*dG*d[5mC]*dG*d[5mC]*dG*dG*d[5mC]*dT*d[5mC]*kT*k[5mC]*k[5mC]; antisense) [compound 798654]”: the “% inhibition of SMAD7 mRNA expression” value amounted to 23%.

Regarding “798655 (kG*kG*k[5mC]*d[5mC]*d[5mC]*dG*d[5mC]*dG*d[5mC]*d[5mC]*d[5mC]*dT*dG*k[5mC]*kG*k[5mC]; antisense) [compound 798655]”, the “% inhibition of SMAD7 mRNA expression” value is given as 21%.

With “798656 (k[5mC]*kG*k[5mC]*dG*dG*d[5mC]*d[5mC]*d[5mC]*dG*d[5mC]*dG*d[5mC]*d[5mC]*k[5mC]*kT*kG; antisense) [compound 798656]”, the “% inhibition of SMAD7 mRNA expression” value was 10%.

As to “798657 (k[5mC]*k[5mC]*kG*d[5mC]*dG*d[5mC]*dG*dG*d[5mC]*d[5mC]*d[5mC]*dG*d[5mC]*kG*k[5mC]*k[5mC]; antisense) [compound 798657]”, the “% inhibition of SMAD7 mRNA expression” value was found to be 0%.

As for “798658 (kA*k[5mC]*k[5mC]*d[5mC]*d[5mC]*dG*d[5mC]*dG*d[5mC]*dG*dG*d[5mC]*d[5mC]*k[5mC]*kG*k[5mC]; antisense) [compound 798658]”, the “% inhibition of SMAD7 mRNA expression” value was 71%.

With “798659 (k[5mC]*k[5mC]*k[5mC]*dA*d[5mC]*d[5mC]*d[5mC]*d[5mC]*dG*d[5mC]*dG*d[5mC]*dG*kG*k[5mC]*k[5mC]; antisense) [compound 798659]”, the “% inhibition of SMAD7 mRNA expression” value was found to be 58%.

Still in this series, the particulars now being: Hep3B cells, electroporation, 10,000 nM antisense oligonucleotide, approximately 24 hours, RTS5062, relative to untreated control cells.
For “790710 (kG*kG*kG*dA*dA*dA*dT*dG*dT*dT*d[5mC]*dT*dA*k[5mC]*k[5mC]*kT; antisense) [compound 790710]”, the “% inhibition of SMAD7 mRNA expression” value turned out to be 15%.

Take “790719 (kG*kG*kA*d[5mC]*dA*dG*dT*d[5mC]*dT*dG*d[5mC]*dT*dG*kT*kG*kG; antisense) [compound 790719]”: the “% inhibition of SMAD7 mRNA expression” value turned out to be 86%.

The series is the same for the next values; noted with them: Hep3B cells, electroporation, 10,000 nM, approximately 24 hours; 3-10-3 cEt gapmers targeting SEQ ID NO: 3 and 4.
On to “790634 (kA*kG*kT*d[5mC]*dA*dG*dT*dT*dG*dG*dT*dT*dT*kG*kA*kG; antisense) [compound 790634]”, for which the “% inhibition of SMAD7 mRNA expression” value amounted to 0%.

On to “790635 (kG*kG*kA*d[5mC]*dA*dG*dT*d[5mC]*dA*dG*dT*dT*dG*kG*kT*kT; antisense) [compound 790635]”, for which the “% inhibition of SMAD7 mRNA expression” value was determined as 40%.

Staying with this series, now noted: SMAD7 mRNA, Hep3B cells, 10,000 nM antisense oligonucleotide, electroporation, approximately 24 hours, primer probe set RTS5062, relative to untreated control cells.
For the substance “790637 (kA*k[5mC]*k[5mC]*dT*dA*dG*dT*dT*d[5mC]*dG*d[5mC]*dA*dG*kA*kG*kT; antisense) [compound 790637]”, the “% Inhibition” value is 0%.

As to “790647 (k[5mC]*kG*k[5mC]*dG*dA*dG*dG*d[5mC]*dG*dG*dT*dG*dA*kT*kT*kG; antisense) [compound 790647]”, the “% Inhibition” value is 24%.

Consider “790652 (k[5mC]*kA*k[5mC]*d[5mC]*dA*dG*dT*dT*dG*dG*dT*dT*dT*kG*kA*kG; antisense) [compound 790652]”, for which the “% Inhibition” value came out at 25%.

For the substance “790659 (kT*kG*k[5mC]*d[5mC]*dA*dG*dT*d[5mC]*dT*d[5mC]*dA*dA*dA*kT*kG*kG; antisense) [compound 790659]”, the “% Inhibition” value was found to be 27%.

“790674 (kT*kG*k[5mC]*dT*dA*d[5mC]*d[5mC]*dT*dA*dA*dT*dG*dT*k[5mC]*kA*kA; antisense) [compound 790674]”: the “% Inhibition” value came out at 40%.

For “790678 (kT*k[5mC]*k[5mC]*dT*dA*dT*dT*dG*dG*d[5mC]*dT*dG*dA*kT*k[5mC]*kT; antisense) [compound 790678]”, the “% Inhibition” value amounted to 46%.

Take “790679 (kA*kG*kG*dT*dT*dA*dA*dT*d[5mC]*dA*d[5mC]*dT*dT*k[5mC]*k[5mC]*kT; antisense) [compound 790679]”: the “% Inhibition” value was found to be 13%.

Take “790693 (k[5mC]*kA*kA*dA*dG*dT*dA*dT*dA*d[5mC]*d[5mC]*dT*dG*kT*kT*k[5mC]; antisense) [compound 790693]”: the “% Inhibition” value stood at 45%.

Turning to “790696 (k[5mC]*kA*kA*dA*dG*dG*dT*dA*dA*dG*d[5mC]*d[5mC]*dA*kG*k[5mC]*kT; antisense) [compound 790696]”, the “% Inhibition” value is recorded as 41%.

Take “790697 (kA*kT*kT*d[5mC]*dA*dG*dG*dG*dT*dG*dT*d[5mC]*dA*kG*k[5mC]*k[5mC]; antisense) [compound 790697]”: the “% Inhibition” value stood at 59%.

With “790701 (kG*kG*kA*dT*dA*d[5mC]*dA*d[5mC]*dT*dT*dA*dA*dT*k[5mC]*kA*kA; antisense) [compound 790701]”, the “% Inhibition” value was 57%.

In the case of “790741 (kA*kT*kT*dA*dA*dG*d[5mC]*d[5mC]*d[5mC]*dG*d[5mC]*dT*d[5mC]*kT*k[5mC]*kA; antisense) [compound 790741]”, the “% Inhibition” value amounted to 30%.

For “790747 (kG*kT*kA*d[5mC]*dA*dA*dT*d[5mC]*dT*d[5mC]*d[5mC]*dT*dG*kG*kA*kA; antisense) [compound 790747]”, the “% Inhibition” value came to 8%.

On to “790754 (k[5mC]*kT*kA*dA*dG*d[5mC]*dT*dA*d[5mC]*dT*dT*dG*dG*kT*kT*kT; antisense) [compound 790754]”, for which the “% Inhibition” value was 38%.

“790775 (kT*kA*k[5mC]*dA*dA*dG*dG*dT*dG*dA*dA*dA*dG*kT*kT*kA; antisense) [compound 790775]”: the “% Inhibition” value came out at 7%.

Consider “790791 (kG*kG*kG*d[5mC]*dA*d[5mC]*dA*d[5mC]*d[5mC]*dA*d[5mC]*d[5mC]*dT*kG*k[5mC]*k[5mC]; antisense) [compound 790791]”, for which the “% Inhibition” value stood at 7%.

In the case of “790855 (kA*k[5mC]*k[5mC]*dT*dT*dT*dT*d[5mC]*d[5mC]*dG*dG*dT*dA*kT*kT*kT; antisense) [compound 790855]”, the “% Inhibition” value came to 40%.

Turning to “790871 (kT*kG*kT*dT*dA*dG*dG*dA*d[5mC]*d[5mC]*dT*dG*dG*kG*kA*kA; antisense) [compound 790871]”, the “% Inhibition” value amounted to 39%.

With “790874 (k[5mC]*k[5mC]*kG*dG*dA*dA*dG*dT*d[5mC]*dT*dT*dG*dT*kA*kT*kT; antisense) [compound 790874]”, the “% Inhibition” value is given as 0%.

For the origin of these results see patent publication US10517889B2, “Modulators of SMAD7 expression” (Ionis Pharmaceuticals, Inc., priority 2017, dated 2019).
